Legend:
HA-tagged PA from FluB = assay: competitive ELISA, PB1 peptide / PA of FluB; type: binding, influenza B virus
HA-tagged PA of FluA = settings: read-out: IC50 (nM) PA (FluA)

Sequence: MDVNPYFLFLKVPAQ [PB11-15 AT6Y, L7F]
- IC50 (HA-tagged PA from FluB): 345 nM
- IC50 (HA-tagged PA of FluA): 7.51 nM

From patent US20120122896A1, “2,1,3-BENZOXADIAZOL DERIVATIVES FOR THE INHIBITION OF INFLUENZA A AND B VIRUS AND RESPIRATORY SYNCYTIAL VIRUS REPLICATION” (PIKE PHARMA GMBH, priority 2009, published 2012)
